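The compound was tested at five concentrations on cells cultured in 96-well plates, with a 48-hour exposure period. TGI denotes the concentration required for complete inhibition of growth.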

One assay concerns SK-MEL-2 melanoma. The experiment in a line: NCI anticancer screen, dose series, 48 h.
The compound `CNS(=O)(=O)NNS(=O)(=O)c1ccc(Br)cc1` showed a TGI above 100 µM.
`Cc1ccc(NC(=O)CSc2nnc(-c3ccc(N=Cc4ccc(Cl)cc4)cc3)o2)cc1` showed a TGI above 100 µM.
The same measure, in the same setting: as for `CCC1CCc2c(c(=O)oc3c2cc(OC)c2cccc(OC)c23)C1` (configuration not stated), the figure is above 100 µM; as for `CCOC(=O)CO/N=C1/C(c2c(O)[nH]c3ccccc23)=Nc2ccccc21`, above 100 µM.
Turning to `COC(=O)C1=C(C(=O)Nc2cccnc2Cl)N(c2ccc(OC)cc2[N+](=O)[O-])C(c2ccc(C)cc2)=CC1c1ccc(OC)cc1OC` (configuration not stated), the TGI is 65 µM.

The test system of another assay is SNB-78 CNS. In words: NCI anticancer screen, dose series, 48 h.
Compound `CNS(=O)(=O)NNS(=O)(=O)c1ccc(Br)cc1` gave a TGI above 100 µM.
Still for that read-out and setting: as for `Cc1ccc(NC(=O)CSc2nnc(-c3ccc(N=Cc4ccc(Cl)cc4)cc3)o2)cc1`, the figure is above 100 µM; as for `CCC1CCc2c(c(=O)oc3c2cc(OC)c2cccc(OC)c23)C1` (configuration not stated), above 100 µM.

A further assay concerns HCT-15 colon. In words: NCI anticancer screen, dose series, 48 h.
Regarding `CNS(=O)(=O)NNS(=O)(=O)c1ccc(Br)cc1`, the TGI is above 100 µM.
The compound `Cc1ccc(NC(=O)CSc2nnc(-c3ccc(N=Cc4ccc(Cl)cc4)cc3)o2)cc1` yielded a TGI above 100 µM.
The same measure, in the same setting: for `CCC1CCc2c(c(=O)oc3c2cc(OC)c2cccc(OC)c23)C1` (configuration not stated) the value was above 100 µM.
Same read-out and setting: for `CCOC(=O)CO/N=C1/C(c2c(O)[nH]c3ccccc23)=Nc2ccccc21` the value was above 100 µM; for `COC(=O)C1=C(C(=O)Nc2cccnc2Cl)N(c2ccc(OC)cc2[N+](=O)[O-])C(c2ccc(C)cc2)=CC1c1ccc(OC)cc1OC` (configuration not stated), 49.8 µM.

For a further assay, the system named is HL-60(TB) leukemia. The experiment in a line: NCI anticancer screen, dose series, 48 h.
In turn, `CNS(=O)(=O)NNS(=O)(=O)c1ccc(Br)cc1` had a TGI above 100 µM.
`Cc1ccc(NC(=O)CSc2nnc(-c3ccc(N=Cc4ccc(Cl)cc4)cc3)o2)cc1` gave a TGI above 100 µM.
Still for that read-out and setting: as for `CCC1CCc2c(c(=O)oc3c2cc(OC)c2cccc(OC)c23)C1` (configuration not stated), the figure is 69.6 µM; as for `CCOC(=O)CO/N=C1/C(c2c(O)[nH]c3ccccc23)=Nc2ccccc21`, above 100 µM.
For the compound `COC(=O)C1=C(C(=O)Nc2cccnc2Cl)N(c2ccc(OC)cc2[N+](=O)[O-])C(c2ccc(C)cc2)=CC1c1ccc(OC)cc1OC` (configuration not stated), the TGI stood at 52.5 µM.

Another assay relates to K-562 leukemia. In words: NCI anticancer screen, dose series, 48 h.
`CNS(=O)(=O)NNS(=O)(=O)c1ccc(Br)cc1` returned a TGI above 100 µM.
Same read-out and setting: for `Cc1ccc(NC(=O)CSc2nnc(-c3ccc(N=Cc4ccc(Cl)cc4)cc3)o2)cc1` the value was above 100 µM; for `CCC1CCc2c(c(=O)oc3c2cc(OC)c2cccc(OC)c23)C1` (configuration not stated), above 100 µM; for `CCOC(=O)CO/N=C1/C(c2c(O)[nH]c3ccccc23)=Nc2ccccc21`, above 100 µM.
Compound `COC(=O)C1=C(C(=O)Nc2cccnc2Cl)N(c2ccc(OC)cc2[N+](=O)[O-])C(c2ccc(C)cc2)=CC1c1ccc(OC)cc1OC` (configuration not stated) came in with a TGI above 100 µM.

The next assay relates to TK-10 renal. The experiment in a line: NCI anticancer screen, dose series, 48 h.
With `CNS(=O)(=O)NNS(=O)(=O)c1ccc(Br)cc1`, the TGI is above 100 µM.
In turn, `Cc1ccc(NC(=O)CSc2nnc(-c3ccc(N=Cc4ccc(Cl)cc4)cc3)o2)cc1` had a TGI above 100 µM.
On the same count and under the same terms, as for `CCC1CCc2c(c(=O)oc3c2cc(OC)c2cccc(OC)c23)C1` (configuration not stated), the figure is above 100 µM; as for `CCOC(=O)CO/N=C1/C(c2c(O)[nH]c3ccccc23)=Nc2ccccc21`, above 100 µM.
Still for that read-out and setting: as for `COC(=O)C1=C(C(=O)Nc2cccnc2Cl)N(c2ccc(OC)cc2[N+](=O)[O-])C(c2ccc(C)cc2)=CC1c1ccc(OC)cc1OC` (configuration not stated), the figure is above 64.2 µM.

A further assay has as its system MALME-3M melanoma. The experiment in a line: NCI anticancer screen, dose series, 48 h.
In turn, `CNS(=O)(=O)NNS(=O)(=O)c1ccc(Br)cc1` returned a TGI above 100 µM.
The same measure, in the same setting: for `Cc1ccc(NC(=O)CSc2nnc(-c3ccc(N=Cc4ccc(Cl)cc4)cc3)o2)cc1` the value was above 100 µM.
Still for that read-out and setting: as for `CCC1CCc2c(c(=O)oc3c2cc(OC)c2cccc(OC)c23)C1` (configuration not stated), the figure is above 100 µM; as for `CCOC(=O)CO/N=C1/C(c2c(O)[nH]c3ccccc23)=Nc2ccccc21`, above 100 µM.
`COC(=O)C1=C(C(=O)Nc2cccnc2Cl)N(c2ccc(OC)cc2[N+](=O)[O-])C(c2ccc(C)cc2)=CC1c1ccc(OC)cc1OC` (configuration not stated) came in with a TGI of 53.3 µM.

The next assay deals with NCI-H522 lung. The experiment in a line: NCI anticancer screen, dose series, 48 h.
In the case of `CNS(=O)(=O)NNS(=O)(=O)c1ccc(Br)cc1`, the TGI was above 100 µM.
`Cc1ccc(NC(=O)CSc2nnc(-c3ccc(N=Cc4ccc(Cl)cc4)cc3)o2)cc1` gave a TGI above 100 µM.
The same measure, in the same setting: as for `CCC1CCc2c(c(=O)oc3c2cc(OC)c2cccc(OC)c23)C1` (configuration not stated), the figure is above 100 µM.
Take `CCOC(=O)CO/N=C1/C(c2c(O)[nH]c3ccccc23)=Nc2ccccc21`: the TGI was above 100 µM.
On the same count and under the same terms, as for `COC(=O)C1=C(C(=O)Nc2cccnc2Cl)N(c2ccc(OC)cc2[N+](=O)[O-])C(c2ccc(C)cc2)=CC1c1ccc(OC)cc1OC` (configuration not stated), the figure is 26.3 µM.

Another assay has as its system SF-295 CNS. In words: NCI anticancer screen, dose series, 48 h.
On to `Cc1ccc(NC(=O)CSc2nnc(-c3ccc(N=Cc4ccc(Cl)cc4)cc3)o2)cc1`, for which the TGI is above 100 µM.
`CCC1CCc2c(c(=O)oc3c2cc(OC)c2cccc(OC)c23)C1` (configuration not stated) displayed a TGI above 100 µM.
Still for that read-out and setting: as for `CCOC(=O)CO/N=C1/C(c2c(O)[nH]c3ccccc23)=Nc2ccccc21`, the figure is above 100 µM; as for `COC(=O)C1=C(C(=O)Nc2cccnc2Cl)N(c2ccc(OC)cc2[N+](=O)[O-])C(c2ccc(C)cc2)=CC1c1ccc(OC)cc1OC` (configuration not stated), above 100 µM.

The values are drawn from PubChem BioAssay (NCI).
